Data set [1] has as its system collagenase. In words: Collagenase inhibitory activity (EnzChek Gelatinase/Collagenase Assay Kit, DQ collagen). Format: biochemical. On the procedure:
(§1) Collagenase inhibitory activity was performed by purchasing EnzChek® Gelatinase/Collagenase Assay Kit (250-2000 Assays) reagent from Invitrogen. First, DQ collagen stock solution (1 mg/ml) was prepared by adding 1.0 ml of DDW to 1 mg DQ collagen vial. The 18 ml of DDW was added to 2 ml of 10× reaction buffer, so as to dilute reaction buffer. Then, a collagenase enzyme reagent was prepared, and diluted with reaction buffer to a final concentration of 0.2 U/ml as working solution. Three samples of 50 ? each were prepared in a 96-well plate. The 30 ? of reaction buffer was added to 20 ? of DQ collagen and sample blank, and 30 ? of working solution was added to a sample, which were then left in a light-blocked state at room temperature for about one to two hours, and then fluorescence intensity was measured at excitation wavelength 485 nm and emission wavelength 535 nm using ELISA plate reader (VICTOR X3™, PerkinElmer, US).
As a positive control, copper peptide (Comparative Example 12), which is a representative peptide widely used as a raw material for functional cosmetics, was prepared at the same concentration and used. Copper peptide has excellent skin regeneration ability and thus is used as a raw material to suppress skin aging by promoting wound healing, strengthening skin elasticity, and increasing subcutaneous fat layers.

Data set [2] concerns the target T1, elastase (Sus scrofa, UniProt P00772).
T1 construct: purchased Invitrogen
In words: Elastase inhibitory activity (EnzChek Elastase Assay Kit, DQ elastin). As to conditions: for inhibition at 20 µg/mL: 0.02 mg/ml; for inhibition at 40 µg/mL: 0.04 mg/ml; for inhibition at 60 µg/mL: 0.06 mg/ml. In kind it is biochemical. The method, then:
Elastase inhibitory activity was performed by purchasing EnzChek® Elastase Assay Kit (600 Assays) reagent from Invitrogen. First, DQ elastin stock solution (1 mg/ml) was prepared by adding 1.0 ml of DDW to 1 mg DQ elastin vial. The 18 ml of DDW was added to 2 ml of 10× reaction buffer, so as to dilute reaction buffer. Then, an elastase enzyme reagent was prepared, and diluted with reaction buffer to a final concentration of 0.2 U/ml as working solution. Three samples of 50 ? each were prepared in a 96-well plate. The 50 ? of reaction buffer was added to 50 ? of DQ elastin and sample blank, and 50 ? of working solution was added to a sample, which were then left in a light-blocked state at room temperature for about one hour, and then fluorescence intensity was measured at excitation wavelength 505 nm and emission wavelength 515 nm using ELISA plate reader (VICTOR X3™, PerkinElmer, US).
Copper peptide (Comparative Example 12) and EGCg (Comparative Example 13), which is widely used as a raw material for functional cosmetics, were prepared at the same concentration and used as a positive control.
EGCg (epigallocatechin gallate) is a kind of polyphenol, which is an extract of green tea leaves, and is used as a cosmetic raw material for anti-oxidation, inflammation reduction, and wrinkle alleviation, and Copper peptide is used as a raw material for promoting wound healing, strengthening skin elasticity, and increasing subcutaneous fat layer to suppress skin aging due to excellent skin regeneration ability.

Data set [3] concerns gelatinase. In words: Gelatinase inhibitory activity (EnzChek Gelatinase/Collagenase Assay Kit, DQ gelatin). Format: biochemical. The method, then: Gelatinase is an enzyme which plays a major role in promoting skin aging by more finely degrading collagen fragments digested by MMP-1 with MMP-2, and wrinkle reduction activity was determined by measuring the inhibitory activity of the enzyme.
as §1, with “Gelatinase inhibitory” for “Collagenase inhibitory”, “DQ gelatin” for “DQ collagen”, “a gelatinase” for “a collagenase”, “and” for “and emission wavelength”

The nature of data set [4]: HS68 cytotoxicity test (MTS cell viability). In kind it is cell-based. The settings on record: human, HS68 cells (skin fibroblasts); for viability at 24 h, 1 µg/mL: HS68, 1 μg/ml; for viability at 24 h, 10 µg/mL: HS68, 10 μg/ml; for viability at 24 h, 50 µg/mL: HS68, 50 μg/ml; for viability at 24 h, 100 µg/mL: HS68, 100 μg/ml. The method, then:
Skin fibroblast HS68 cells were used. The medium was DMEM high glucose (SH30243.01, HyClone™, Logan, UT, USA) medium containing 10% fetal bovine serum (FBS, Lonza, Valais, Switzerland) medium. The cell lines were cultured in an incubator adjusted to 95% humidity, 5% CO2 and 37° C., and at this time, a medium antibiotic (Penicillin streptomycin, Gibco, Calif., USA) was used to suppress contamination or proliferation of microorganisms.
(§2) Cell viability was measured using MTS (CellTiter 96® AQueous One Solution Cell Proliferation Assay, Promega, USA) reagent. The cells were divided at a concentration of 1×10^4 cells/well in a 96-well plate and then stabilized for 24 hours in an incubator controlled to 95% humidity, 5% CO2 and 37° C. After that, the samples were treated for each concentration and cultured for 24 hours in an incubator controlled to 95% j humidity, 5% CO2 and 37° C. After the medium was removed, 9 ml of medium (DMEM high, free FBS) was added to 1 ml of the reagent and diluted, and then 100 ul of the diluted solution was treated per well. After the reaction at 37° C. for 60 minutes, absorbance was measured at 490 nm with microplate reader (Molecular Devices, VersaMax ELISA Microplate Reader, USA). Cell viability was represented by absorbance of a sample-treated group compared to a control group not treated with the sample.

Data set [5] in a line: HaCaT cytotoxicity test (MTS cell viability). Format: cell-based. The settings on record: human, HaCaT cells (skin epidermal cells); for viability at 24 h, 1 µg/mL: 1 μg/ml; for viability at 24 h, 10 µg/mL: 10 μg/ml; for viability at 24 h, 50 µg/mL: 50 μg/ml; for viability at 24 h, 100 µg/mL: 100 μg/ml. The method, then:
HaCaT cells, skin epidermal cells (derived from human), were used. The medium was DMEM low (SH30021.01, HyClone™, Logan, UT, USA) medium containing 10% fetal bovine serum (FBS, Lonza, Valais, Switzerland) medium. The cell lines were cultured in an incubator adjusted to 95% humidity, 5% CO2 and 37° C., and at this time, a medium antibiotic (Penicillin streptomycin, Gibco, Calif., USA) was used to suppress contamination or proliferation of microorganisms. When the cells covered the dish about 80%, the cells were washed with phosphated-buffered saline-EDTA (PBS-EDTA), and then the cells attached to the bottom of the dish were detached by treating with 1 ml of 0.05% trypsin EDTA, and subjected to subculture. The medium was exchanged every 48 hours to culture the cells.
as §2, with “each concentration (table 1) and cultured” for “each concentration and cultured”, “to 95% humidity, 5%” for “to 95% j humidity, 5%”, “medium (DMEM low, free FBS)” for “medium (DMEM high, free FBS)”

The target in data set [6] is T2, MMP1 protein (pdb1cgl) (Homo sapiens, UniProt P03956).
T2 sequence (P03956 101-269 limits assumed): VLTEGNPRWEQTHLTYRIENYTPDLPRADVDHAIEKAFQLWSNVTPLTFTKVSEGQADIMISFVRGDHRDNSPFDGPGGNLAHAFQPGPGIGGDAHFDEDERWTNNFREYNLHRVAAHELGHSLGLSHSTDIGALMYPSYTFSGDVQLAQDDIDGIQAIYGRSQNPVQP
In words: Molecular docking (SYBYL-X 2.1.1, Surflex-Dock 2.7) of binding affinity to collagenase. As to conditions: from Surflex-Dock total score. On the procedure: Molecular modeling was conducted through a computer simulation program.
Target structure: MMP1 protein (pdb1cgl)
Software: SYBYL-X 2.1.1, Surflex-Dock2.7
Through a computer simulation program, a study was conducted on how to promote collagenase enzyme inhibitory activity and percutaneous absorption during peptide modification.
Total score is a value indicating the degree of binding affinity of a docked structure including a crash and a polar interaction in the unit of pKd, and the larger the value, the higher the binding affinity. And, the similarity is a value comparing the similarity with the structure already bonded to the 1cgl, and means that the closer to 1, the more similar. The result of such docking means that the addition of an appropriate modification residue through a docking simulation of computer chemistry may increase the binding affinity and similarity.
However, when compared with the overall consensus score, a binding affinity similar to or higher than that of pdb1cgl_ligand may be expected, particularly in the modified GPN and PGN, too.

Data set [7] addresses T2, MMP1 protein (pdb1cgl). As to conditions: ligand binding to pdb; cited from earlier work.

Here are results for 7 compounds from patent publication US20230312643A1, “PEPTIDE DERIVATIVE WITH COLLAGENASE INHIBITORY ACTIVITY, AND USE THEREOF” (SUNMARINE BIOTECH, priority 2020, published 2023).

Each structure is given as a SMILES string.

T1 sequence (P00772 27-266): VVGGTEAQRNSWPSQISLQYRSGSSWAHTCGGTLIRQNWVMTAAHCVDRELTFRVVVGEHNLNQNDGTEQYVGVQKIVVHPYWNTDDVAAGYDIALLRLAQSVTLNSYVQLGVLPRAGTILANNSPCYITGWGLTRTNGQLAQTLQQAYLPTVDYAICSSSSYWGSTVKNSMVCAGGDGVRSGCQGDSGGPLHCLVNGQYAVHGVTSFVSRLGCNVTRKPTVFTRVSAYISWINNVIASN

`CCCOC(=O)[C@H](CC(N)=O)NC(=O)CNC(=O)[C@@H]1CCCN1` [PGN-OPr, PGN(Pro-Gly-Asn)-OPr] registered a Collagenase inhibitory activity in data set [1] (0.05 mg/ml) of 5.7 ± 3.1%. This compound also returned a Collagenase inhibitory activity in data set [1] (0.1 mg/ml) of 14.3 ± 5.2%. The compound also showed a Collagenase inhibitory activity in data set [1] (0.5 mg/ml) of 67.1 ± 0.8%. Also, the Collagenase inhibitory activity in data set [1] (1 mg/ml) was determined as 98.7%. The “collagenase inhibitory activity IC50” value in data set [1] (FIGS. 5 and 6) amounted to 508 mg/L. In addition, in data set [2], the inhibition (commonly the percentage by which the read-out fell short of the control) at 20 µg/mL came out at 17.3 ± 1.1%, testing at 40 µg/mL gave an inhibition of 27.5 ± 2.5% and the inhibition at 60 µg/mL was determined as 34.2 ± 0.5%. The same compound displayed an inhibition at 100 µg/mL in data set [2] (0.1 mg/ml) of 77.6 ± 2.8%. Also, the inhibition at 1000 µg/mL in data set [2] (1 mg/ml) was determined as 77.6%. Moreover, in data set [2] (FIGS. 8 and 9), it took 216 µM to reach half-maximal inhibition (IC50). In data set [3] (0.2 mg/ml), the Gelatinase inhibitory activity came out at 16.9 ± 2.7%. This compound displayed a Gelatinase inhibitory activity in data set [3] (0.3 mg/ml) of 54.2 ± 6.3%. Further, in data set [3] (0.4 mg/ml), the Gelatinase inhibitory activity is 96.4 ± 1.8%. In data set [3] (0.5 mg/ml), the Gelatinase inhibitory activity was determined as 98.9%; the “gelatinase inhibitory activity, times higher than that of Copper peptide” value is on record as ~15 times; the “gelatinase inhibitory activity, times higher than that of EGCg” value is “about 1.3 times”. In addition, in data set [4], the viability (usually a read-out of living cells in per cent, often relative to untreated cells) at 24 h, 1 µg/mL came out at 107 ± 2.4%; the viability at 24 h, 10 µg/mL worked out at 107 ± 8.9%; the viability at 24 h, 50 µg/mL is 115 ± 6.9%; the viability at 24 h, 100 µg/mL turned out to be 116 ± 3.6%. Also, in data set [5], the viability at 24 h, 1 µg/mL came out at 117 ± 9.6%; the viability at 24 h, 10 µg/mL is 126 ± 14.1%; the viability at 24 h, 50 µg/mL came to 130 ± 13.3%; the viability at 24 h, 100 µg/mL was 128 ± 5.3%.
For the compound `NCC(=O)N1CCC[C@H]1C(=O)N[C@@H](CC(N)=O)C(=O)O` [GPN, Gly-Pro-Asn, reference compound], the “binding affinity compared to 1cgl ligand” value in data set [6] is “about 51.8%”.
For `CCCC(=O)C(CC(N)=O)NC(=O)C1CCCN1C(=O)CNC` (stereo not shown) [Me-GPN-Propyl], in data set [6], the “binding affinity compared to 1cgl ligand” value came out at 74.7% and the “increase of binding affinity compared to before the modification” value is listed as 21.9%.
In data set [2], `CCCCCCCCCCCCCCCC(=O)N1CCC[C@H]1C(=O)NCC(=O)N[C@@H](CC(N)=O)C(=O)O` [Pal-PGN] had an inhibition at 20 µg/mL of 0.3 ± 0.9%, an inhibition at 40 µg/mL of 1.2 ± 2.8% and an inhibition at 60 µg/mL of 1.5 ± 2%. For the same compound, the inhibition at 100 µg/mL in data set [2] (0.1 mg/ml) was determined as 5.2 ± 2.9%. In data set [4], the viability at 24 h, 1 µg/mL was determined as 106 ± 2.9%; the viability at 24 h, 10 µg/mL was 111 ± 2.8%; the viability at 24 h, 50 µg/mL was determined as 105 ± 3.3%; the viability at 24 h, 100 µg/mL turned out to be 116 ± 3.3%. For the same compound, in data set [5], the viability at 24 h, 1 µg/mL came to 115 ± 10%; the viability at 24 h, 10 µg/mL came to 112 ± 3.7%; the viability at 24 h, 50 µg/mL was 113 ± 7.7%; the viability at 24 h, 100 µg/mL came out at 108 ± 6.5%.
In the case of `O=C(O[C@@H]1Cc2c(O)cc(O)cc2O[C@@H]1c1cc(O)c(O)c(O)c1)c1cc(O)c(O)c(O)c1` [EGCg, epigallocatechin gallate, reference compound], the “elastase inhibitory activity” value came to 66.1 ± 4.4% in data set [2] (0.1 mg/ml) and 66.1% in data set [2] (1 mg/ml). The compound further displayed a Gelatinase inhibitory activity in data set [3] (0.5 mg/ml) of 74.7%.
Regarding `COC(=O)NCC[C@@H](N[C@@H](CC(C)C)C(=O)N[C@@H](Cc1ccccc1)C(=O)NCCN1CCOCC1)C(=O)O` [PDB 1CGL], in data set [7], the Ki – broadly, the dissociation constant of the complex between target and ligand, obtained from inhibition or displacement – was 0.135 µM.
`CCCC(=O)C(CC(N)=O)NC(=O)CNC(=O)C1CCCN1C` (stereo not shown) [Me-PGN-Propyl]: in data set [6], the “binding affinity compared to 1cgl ligand” value was 90.1% and the “increase of binding affinity compared to before the modification” value was 28.6%.
